Data on 15 compounds can be found in patent publication US20080207725A1, “Phenyl-Pyrazole Derivatives as Non-Steroidal Glucocorticoid Receptor Ligands” (Glaxo Group Limited, a corporation, priority 2005, published 2008).

A value given as a limit tells only on which side of the number the result lay.

This assay relates to NFkB activity. Nature of the assay: Glucocorticoid mediated transrepression of NFkB activity (A549 ELAM promoter SPAP reporter, TNFα stimulated). The format is cell-based. The settings on record: Human A549 lung epithelial cells, 3 ng/ml human recombinant TNFα, 16 hours; read-out: pEC50, transrepression of NFkB activity (converted). The source says:
Human A549 lung epithelial cells were engineered to contain a secreted placental alkaline phosphatase gene under the control of the distal region of the NFkB dependent ELAM promoter as previously described in Ray, K. P., Farrow, S., Daly, M., Talabot, F. and Searle, N. “Induction of the E-selectin promoter by interleukin 1 and tumour necrosis factor alpha, and inhibition by glucocorticoids” Biochemical Journal (1997) 328: 707-15.
Compounds were solvated and diluted in DMSO, and transferred directly into assay plates such that the final concentration of DMSO was 0.7%. Following the addition of cells (40K per well), plates were incubated for 1 hour prior to the addition of 3 ng/ml human recombinant TNFα. Following continued incubation for 16 hours, alkaline phosphatase activity was determined by measuring the change in optical density at 405 nm with time following the addition of 0.7 volumes of assay buffer (1 mg/ml p-nitrophenylphosphate dissolved in 1M diethanolamine, 0.28M NaCl, 0.5 mM MgCl2). Dose response curves were constructed from which EC50 values were estimated.
In the case of `CC(C)(C[C@@](O)(CNC(=O)c1cnn(-c2ccccc2F)c1N)C(F)(F)F)c1cc(F)ccc1O` [Example 8, (2R)-5-Amino-N-[4-(5-fluoro-2-hydroxyphenyl)-2-hydroxy-4-methyl-2-(trifluoromethyl)pentyl]-1-(2-fluorophenyl)-1H-pyrazole-4-carboxamide], the EC50 is under 3.16 nM.

Take `CC(C)(C[C@@](O)(CNC(=O)c1cnn(-c2ccc(F)cc2F)c1N)C(F)(F)F)c1cccc2c1OCC2` [Example 14, (2R)-5-Amino-1-(2,4-difluorophenyl)-N-[4-(2,3-dihydro-1-benzofuran-7-yl)-2-hydroxy-4-methyl-2-(trifluoromethyl)pentyl]-1H-pyrazole-4-carboxamide]: the EC50 was under 3.16 nM.

Consider `COc1ccc(F)cc1C(C)(C)C[C@@](O)(CNC(=O)c1cnn(-c2ccc(F)cc2F)c1N)C(F)(F)F` [Example 4, (2R)-5-Amino-1-(2,4-difluorophenyl)-N-[4-[5-fluoro-2-(methyloxy)phenyl]-2-hydroxy-4-methyl-2-(trifluoromethyl)pentyl]-1H-pyrazole-4-carboxamide], for which the EC50 is under 3.16 nM.

`CC(C)(C[C@@](O)(CNC(=O)c1cnn(-c2ccccc2F)c1N)C(F)(F)F)c1cccc2c1OCC2` [Example 12, (2R)-5-Amino-N-[4-(2,3-dihydro-1-benzofuran-7-yl)-2-hydroxy-4-methyl-2-(trifluoromethyl)pentyl]-1-(2-fluorophenyl)-1H-pyrazole-4-carboxamide]: the EC50 was under 3.16 nM.

For the compound `CC(C)(C[C@@](O)(CNC(=O)c1cnn(-c2ccc(F)cc2)c1N)C(F)(F)F)c1cc(F)ccc1O` [Example 7, (2R)-5-Amino-N-[4-(5-fluoro-2-hydroxyphenyl)-2-hydroxy-4-methyl-2-(trifluoromethyl)pentyl]-1-(4-fluorophenyl)-1H-pyrazole-4-carboxamide], the EC50 was under 3.16 nM.

Consider `COc1ccc(F)cc1C(C)(C)C[C@@](O)(CNC(=O)c1cnn(-c2ccc(Cl)cc2)c1N)C(F)(F)F` [Example 5, (2R)-5-Amino-1-(4-chlorophenyl)-N-[4-[5-fluoro-2-(methyloxy)phenyl]-2-hydroxy-4-methyl-2-(trifluoromethyl)pentyl]-1H-pyrazole-4-carboxamide], for which the EC50 is under 3.16 nM.

As for `COc1ccc(F)cc1C(C)(C)C[C@@](O)(CNC(=O)c1cnn(-c2ccc(F)cc2)c1N)C(F)(F)F` [Example 2, (2R)-5-Amino-N-[4-[5-fluoro-2-(methyloxy)phenyl]-2-hydroxy-4-methyl-2-(trifluoromethyl)pentyl]-1-(4-fluorophenyl)-1H-pyrazole-4-carboxamide], the EC50 was under 3.16 nM.

In the case of `CC(C)(C[C@@](O)(CNC(=O)c1cnn(-c2ccccc2)c1N)C(F)(F)F)c1cc(F)ccc1O` [Example 11, (2R)-5-Amino-N-[4-(5-fluoro-2-hydroxyphenyl)-2-hydroxy-4-methyl-2-(trifluoromethyl)pentyl]-1-phenyl-1H-pyrazole-4-carboxamide], the EC50 is under 3.16 nM.

Regarding `CC(C)(C[C@@](O)(CNC(=O)c1cnn(-c2ccc(Cl)cc2)c1N)C(F)(F)F)c1cc(F)ccc1O` [Example 10, (2R)-5-Amino-1-(4-chlorophenyl)-N-[4-(5-fluoro-2-hydroxyphenyl)-2-hydroxy-4-methyl-2-(trifluoromethyl)pentyl]-1H-pyrazole-4-carboxamide], the EC50 is under 3.16 nM.

For the compound `COc1ccc(F)cc1C(C)(C)C[C@@](O)(CNC(=O)c1cnn(-c2ccccc2F)c1N)C(F)(F)F` [Example 3, (2R)-5-Amino-N-[4-[5-fluoro-2-(methyloxy)phenyl]-2-hydroxy-4-methyl-2-(trifluoromethyl)pentyl]-1-(2-fluorophenyl)-1H-pyrazole-4-carboxamide], the EC50 was under 3.16 nM.

For `COc1ccc(F)cc1C(C)(C)C[C@@](O)(CNC(=O)c1cnn(-c2ccccc2)c1N)C(F)(F)F` [Example 6, (2R)-5-Amino-N-[4-[5-fluoro-2-(methyloxy)phenyl]-2-hydroxy-4-methyl-2-(trifluoromethyl)pentyl]-1-phenyl-1H-pyrazole-4-carboxamide], the EC50 is under 3.16 nM.

Turning to `CC(C)(C[C@@](O)(CNC(=O)c1cnn(-c2ccccc2)c1N)C(F)(F)F)c1cccc2c1OCC2` [Example 1, (2R)-5-Amino-N-[4-(2,3-dihydro-1-benzofuran-7-yl)-2-hydroxy-4-methyl-2-(trifluoromethyl)pentyl]-1-phenyl-1H-pyrazole-4-carboxamide], the EC50 was under 3.16 nM.

With `CC(C)(C[C@@](O)(CNC(=O)c1cnn(-c2ccc(F)cc2F)c1N)C(F)(F)F)c1cc(F)ccc1O` [Example 9, (2R)-5-Amino-1-(2,4-difluorophenyl)-N-[4-(5-fluoro-2-hydroxyphenyl)-2-hydroxy-4-methyl-2-(trifluoromethyl)pentyl]-1H-pyrazole-4-carboxamide], the EC50 is under 3.16 nM.

In the case of `CC(C)(C[C@@](O)(CNC(=O)c1cnn(-c2ccc(Cl)cc2)c1N)C(F)(F)F)c1cccc2c1OCC2` [Example 15, (2R)-5-Amino-1-(4-chlorophenyl)-N-[4-(2,3-dihydro-1-benzofuran-7-yl)-2-hydroxy-4-methyl-2-(trifluoromethyl)Pentyl]-1H-pyrazole-4-carboxamide], the EC50 was under 3.16 nM.

Consider `CC(C)(C[C@@](O)(CNC(=O)c1cnn(-c2ccc(F)cc2)c1N)C(F)(F)F)c1cccc2c1OCC2` [Example 13, (2R)-5-Amino-N-[4-(2,3-dihydro-1-benzofuran-7-yl)-2-hydroxy-4-methyl-2-(trifluoromethyl)pentyl]-1-(4-fluorophenyl)-1H-pyrazole-4-carboxamide], for which the EC50 is under 3.16 nM.
